Data from patent US9958451B2, “Near-infrared fluorescent dyes with large stokes shifts” (Portland State University, priority 2011, dated 2018).
Where two headings read alike, the source gives them in different places. Blank lines part the entries; values can stand above or below the molecule they belong to.

Tests used:
[1] = 10 mM HEPES, pH 7.5, 15% (v/v) EtOH, Leytus et al., cited from earlier work
[2] = Spectral properties of rhodamine bis-boronic acids and precursors in DMSO:buffer; format: physicochemical
Protocol: Characterization: The spectral properties of compounds 50-53 were determined. Absorption and fluorescence spectra of solutions of the rhodamine bis-boronic acids 51 and 53, and their respective precursors 50 and 52, are shown in FIGS. 27A-C (in DMSO:buffer 1:9) and 27D-F (DMSO:buffer 1:1). […] Excitation and emission spectra were normalized to their absorbance at the excitation wavelength, and are proportional to quantum yield.

[3] = Effect of pH / ionization on spectra; format: physicochemical
From the text: There are through-space polar interactions between R^18 and the internal bridge oxygen in compounds according to general formulas III, IX, and X. The field effect is further enhanced in the case of symmetric compounds, such as those according to general formula IV when R^19 is oxygen. A unique intramolecular hydrogen-bonding network also is present in such compounds, e.g., compound 8 (FIG. 25). This network produces enhanced negative charge density on the ionizable oxygen atoms, thereby promoting a relatively large bathochromic shift. […] The hydrogen bonding can be seen in compounds such as compound 8 by ^1H NMR spectroscopy. A redistribution of the electronic density around the hydrogen atom occurs upon hydrogen bond formation between the hydroxyl proton, the carbonyl, and the central oxygen of compound 8. […] Evidence of hydrogen bonding was also seen in compound 15a, but to a lesser degree. In compound 15a, the total hydrogen bond distance O—H—O between the hydroxyl at the R^18 position and the xanthene central oxygen is 2.95 Å, which falls in range of common hydrogen bonds.
Known seminaphthorhodafluors display long wavelength absorption at high pH; however, the free amino compound in this series respond to low pH with increased long wavelength absorption.

[4] = Fluorescence emission spectra, 15 μM in 90% aqueous, 10% DMSO; format: physicochemical; settings: for Red-shifted emission from 3-1 transposition versus known regiochemistry: longest wavelength-emitting species
Protocol: Compounds 21 and 7 also were characterized by their fluorescence emission spectra. Fluorescence was measured using 15 μM solutions of each compound in a solution that was 90% aqueous, 10% DMSO. For compound 21, the longest wavelength emission observed from the dianions occurred near 680 nm at pH 9. For compound 7 (transposed), the longest wavelength emission observed from the monoanion occurred near 800 nm at pH 9.
Compounds 22 and 8 also were characterized by their fluorescence emission spectra. Fluorescence was measured using 15 μM solutions of each compound in a solution that was 90% aqueous, 10% DMSO For compound 22, the longest wavelength emission observed from the anion occurred near 690 nm at pH 9. […] Given the greater than 800 nm absorbance peak and the typically large Stokes shifts observed in this class of compounds, it is likely that the emission was beyond the working range of the instrument (>850 nm).
Compounds 20 and 15a also were characterized by their fluorescence emission spectra. Fluorescence was measured using 15 μM solutions of each compound in a solution that was 90% aqueous, 10% DMSO. For compound 20a, the longest wavelength emission observed from its corresponding anion, compound 20c, occurred near 640 nm in NaOH (pH 12). For compound 15a (transposed), the longest wavelength emission observed from the corresponding anion, compound 15h, occurred near 760 nm in NaOH.
Compound 15b also was characterized by its fluorescence emission spectrum and compared to C.SNARF-5. Fluorescence was measured using a 15 μM solution of compound 15b in a solution that was 90% aqueous, 10% DMSO. For C.SNARF-5, the longest wavelength emission observed from the anion occurred near 632 nm (Whitaker et al., Anal. Biochem. 1991, 194, 330-344). For compound 15b (transposed), the longest wavelength emission observed from the phenoxide occurred near 770 nm.
Fluorescence was measured using a 15 μM solution of compound 15d in a solution that was 90% aqueous, 10% DMSO. […] For compound 15d (transposed), the longest wavelength emission observed from the phenoxide occurred near 780 nm (NaOH, pH 12).
Compounds 20b and 15g also were characterized by their fluorescence emission spectra. Fluorescence was measured using 15 μM solutions of each compound in a solution that was 90% aqueous, 10% DMSO. For compound 20b, the longest wavelength emission observed from the cation occurred near 640 nm at pH 7.4. For compound 15g (transposed), the longest wavelength emission observed from the cation occurred near 770 nm at pH 7.4.

[5] = UV-visible absorbance spectroscopy, 15 μM in 90% aqueous, 10% DMSO; format: physicochemical; settings: for Red shift of absorption spectra from 3-1 transposition versus known regiochemistry: depending on the ionization state
Protocol: Compounds 21 and 7 were characterized by UV-visible spectroscopy (FIG. 15). Absorbance was measured using 15 μM solutions of each compound in a solution that was 90% aqueous, 10% DMSO. The peaks at 600 nm (light dashed line) and 675 nm (light solid line) represent the dianions of compounds 21 and 7, respectively, in NaOH (pH 12). The peaks at 590 nm (heavy dashed line) and 650 nm (heavy solid line) represent a mix of mono- and dianions of compound 21 at pH 7.4 and predominantly monoanions of compound 7 at pH 9, respectively.
Compounds 22 and 8 were characterized by UV-visible spectroscopy (FIG. 16). Absorbance was measured using 15 μM solutions of each compound in a solution that was 90% aqueous, 10% DMSO. The peaks at 610 nm (light dashed line) and 685 nm (light solid line) represent the anions of compounds 22 and 8, respectively, in NaOH (pH 12). The peaks at 605 nm (heavy dashed line) and 805 nm (heavy solid line) represent the neutral forms of compounds 22 and 8 at pH 7.4, respectively.
Compounds 20a and 15a were characterized by UV-visible spectroscopy (FIG. 17). Absorbance was measured using 15 μM solutions of each compound in a solution that was 90% aqueous, 10% DMSO. The peaks at 545 nm (light dashed line) and 595 nm (light solid line) represent the respective anions, compounds 20c and 15h, in NaOH (pH 12).
Compound 15b (free amino) was characterized by UV-visible spectroscopy (FIG. 18), and compared to C.SNARF-5 (literature, SNARF=seminaphthorhodafluor). Absorbance was measured using a 15 μM solution of compound 15b in a solution that was 90% aqueous, 10% DMSO. The peak at 535 nm (heavy line) represents the predominantly phenolic form of 15b at pH 6. The peak at 615 nm (light line) represents the phenoxide of compound 15b at in NaOH (pH12). In comparison, C.SNARF-5 produces a peak at 550 nm (anionic form) and a peak at 485 nm (neutral form) (Whitaker et al., Anal. Biochem. 1991, 194, 330-344).
Absorbance was measured using 15 μM solutions of compound 15d in a solution that was 90% aqueous, 10% DMSO. The peak at 570 nm (heavy line) represents the predominantly neutral form of 15d at pH 6. The peak at 630 nm (light line) represents the phenoxide of compound 15d in NaOH (pH 12).
Compounds 20b and 15g were characterized by UV-visible spectroscopy (FIG. 20). Absorbance was measured using 15 μM solutions of each compound in a solution that was 90% aqueous, 10% DMSO. The peaks at 540 nm (dashed line) and 570 nm (solid line) represent the cations of compounds 20b and 15g, respectively, at pH 7.4.

[6] = Absorbance and fluorescence in methanol; format: physicochemical
Protocol: Absorbance and fluorescence of compounds 22 and 8 also were measured in methanol. […] Thus, placement of the hydroxyl group proximal to the xanthene internal oxygen in compound 8 produced a bathochromic shift of 103 nm in the absorption spectrum. The transposition also imparted a corresponding shift in the excitation spectrum, and a large bathochromic shift of 128 nm in the fluorescence emission. Importantly, compound 8 absorbs and emits in the near-infrared with absorption and emission maxima of 701 nm and 816 nm, respectively.
Absorbance and fluorescence of compounds 20a and 15a also were measured in methanol. […] Thus, placement of the hydroxyl group proximal to the xanthene internal oxygen in compound 15a produced a bathochromic shift of 15 nm in the absorbance spectrum. The transposition also imparted a corresponding shift in the excitation spectrum, and a large bathochromic shift of 32 nm in the fluorescence emission.

[7] = Quantum yield in 10:90 DMSO:aqueous solutions; format: physicochemical; settings: 7.5 μM, 10:90 DMSO:aqueous
Protocol: The quantum yield of yellow-orange emitting 16a was 0.4649, 40 times greater than the corresponding neutral compound 15a. It was slightly higher than the yellow-green emitting neutral compound 20a, and >2 times higher than orange-red emitting anion 20c. The compounds (7.5 μM) were analyzed in 10:90 DMSO:aqueous solutions. Fluorescence emission was readily visible in a darkened room when the solutions were excited from below with 3-watt megaMAX 505 nm ALS system. The emission-enhancing properties afforded through the combination of the 3-1 transposition and methylation is in contrast to previously reported methyl ethers of seminaphthofluorescein compounds.

[8] = Emission in blood (whole porcine blood in buffer); settings: 150 μM, 10% and 90% whole blood, excitation at 670 nm
Protocol: Compound 15d (Table 1) was diluted to 40 μM in 50% DMSO:50% 25 mM pH 9 phosphate buffer. […] Emission remained stable for at least 1 hr. The absorption profile matches the output of a laser pointer (635-670 nm; max output <5 mW).
Its absorbance and fluorescence spectra faded over time, but remained visible after about an hour (although with only 10-20% of its original emission intensity). Molecular modeling has shown favorable structural interactions of compounds 5f and 24 with glutathione (FIG. 12—compound 24).
Spectral behavior of compound 15g (type [c] annulated seminaphtho-rhodamine methyl ester (free amine) with the 3-1 transposition) was investigated to determine its potential for sensing use in whole blood. Solutions of compound 15g in 10% or 90% by volume whole blood (porcine blood in Na-EDTA, Lampire Biological Laboratories) were investigated in a 3×3 mm cell. The fluorophore was first dissolved in 50 mM, pH 7.4 phosphate buffer to ensure complete dissolution, and in the case of 90% whole blood, this stock solution was mixed with whole blood in a 1:9 ratio. In the case of 10% whole blood, 1 part whole blood was added to 9 parts of an appropriately diluted (with deionized water) solution of compound 15g stock. In both cases, the final concentration of compound 15g was 150 μM with a final phosphate buffer concentration of 5 mM. […] Throughout much of the spectrum, the dye produces a greater absorbance than the blood alone. The change in absorbance between the two spectra provides the effective absorbance of the dye. […] The broad absorption and large Stokes shift of this dye allows significant excitation with greater than 50% efficiency at wavelengths beyond that of the major hemoglobin peaks in blood.

[9] = NaOH (pH 12), anionic/phenoxide form, 90% aqueous 10% DMSO

- Em ([2]; DMSO:buffer 1:1): 526 nm
- Ex ([2]; DMSO:buffer 1:1): 502 nm
- ε ([2]; DMSO:buffer 1:1): 67905 M⁻¹ cm⁻¹
- Abs ([2]; DMSO:buffer 1:1, pH 7.4 phosphate buffer 12.5 mM): 503 nm
SMILES: Cl.N=c1ccc2c(-c3ccccc3C(=O)O)c3ccc(N)cc3oc-2c1 [Rhodamine 110]
- Abs [1]: 495 nm
- Em [1]: 523 nm
- Q.Y. [1]: 0.91
- Brightness ([1]; @ 492): 60788 @ 492
- ε ([1]; @ 492): 66800 M⁻¹ cm⁻¹

- pH up to which NIR fluorescence was observed [3]: ≤ 9
- Stokes shift [4]: unmeasurable
- Red-shifted emission from 3-1 transposition versus known regiochemistry [4]: more than 160 nm
- Longest wavelength emission ([4]; pH not stated): emission was not observed
- Red shift of absorption spectra from 3-1 transposition versus known regiochemistry ([5]; 90% aqueous 10% DMSO): 75-200 nm
- Absorbance peak [5, 9]: 685 nm
- Absorption maximum [6]: 701 nm
- Bathochromic shift in the absorption spectrum versus known regiochemistry [6]: 103 nm
- Bathochromic shift in the fluorescence emission versus known regiochemistry [6]: 128 nm
- Emission maximum [6]: 816 nm
SMILES: COC(=O)c1ccccc1-c1c2ccc3cccc(O)c3c2oc2c1ccc1cccc(=O)c12 [Compound 8]
- Shift of the absorption maximum on deprotonation [3]: does not result in a large bathochromic shift

- Form below physiological pH of 7.4 ([3]; 1:9 DMSO:buffer): colorless lactone
- Stokes shift [4]: about 150 nm
- Red-shifted emission from 3-1 transposition versus known regiochemistry [4]: about 120 nm
- Longest wavelength emission ([4]; pH 9): ~800 nm
- Red shift of absorption spectra from 3-1 transposition versus known regiochemistry ([5]; 90% aqueous 10% DMSO): 60-75 nm
- Absorbance peak [5, 9]: 675 nm
- Absorbance peak ([5]; pH 9, predominantly monoanions): 650 nm
SMILES: O=C1OC2(c3ccccc31)c1ccc3cccc(O)c3c1Oc1c2ccc2cccc(O)c12 [Compound 7]
- Longest wavelength emission ([4]; NaOH (pH 12), anion/phenoxide): too weak to be detected or, more likely, beyond the working range of the instrument

- Quantum yield [7]: 0.4649
- Quantum yield relative to anion 20c [7]: > 2 times
- Quantum yield relative to neutral compound 15a [7]: 40 times
SMILES: COC(=O)c1ccccc1-c1c2ccc(=O)cc-2oc2c1ccc1cccc(OC)c12 [Compound 16a, methyl 2-(1-methoxy-10-oxo-10H-benzo[c]xanthen-7-yl)benzoate]

SMILES: COC(=O)c1ccccc1-c1c2ccc(=O)cc-2oc2c1ccc1cccc(N)c12 [Compound 15e]
- Response of absorption to pH (pH titration) [3]: increased long wavelength absorption and decreased short wavelength absorption at low pH

- Emission spectrum maximum [8]: about 750 nm
- Enhancement of the Stokes shift by 3-1 transposition [4]: about 100 nm
- Stokes shift [4]: about 200 nm
- Red-shifted emission from 3-1 transposition versus known regiochemistry [4]: about 130 nm
- Longest wavelength emission ([4]; pH 7.4, cation): ~770 nm
- Red shift of absorption spectra from 3-1 transposition versus known regiochemistry ([5]; 90% aqueous 10% DMSO): about 30 nm
- Absorbance peak ([5]; pH 7.4, 90% aqueous 10% DMSO): 570 nm
SMILES: COC(=O)c1ccccc1-c1c2ccc(=N)cc-2oc2c1ccc1cccc(N)c12 [Compound 15g]

- Shift of the absorption maximum on deprotonation [3]: hypsochromic
SMILES: Cc1ccc(C)c(-c2c3ccc4cccc(O)c4c3oc3c2ccc2cccc(=O)c23)c1 [Compound 10, 7-(2,5-dimethylphenyl)-13-hydroxy-1H-dibenzo[c,h]xanthen-1-one]
